The values that follow come from patent US20030207932A1, “Compositions that prevent post-traumatic hyperpigmentation and methods related thereto” (priority 2002, published 2003).

This test has as its system patients with a strong genetic predisposition to post traumatic hyperpigmentation. Put plainly: Proof of concept in patients predisposed to post traumatic hyperpigmentation. To be noted: five subjects; oral zafirlukast alone, 20 mg two times daily, two weeks prior and thereafter for two months. The format is in vivo, human. How it is done: The patients were known to have this predisposition because prior trauma pigmented areas. Five of the subjects were given the oral composition zafirlukast, two weeks prior and thereafter for two months. The dosage was 20 mg two time daily. The other five individuals were give the same medication that the same dosage for the same amount of time, but in addition, were also given a topical preparation.
Five further patients were then selected with obvious genetic predisposition to post traumatic hyperpigmentation. They were given only the topical composition after their surgical procedure. The topical composition was applied three times daily for two months after the procedure. […] This was completely unexpected. The topical composition, as administered, is described in Table 1 below.

On to `COc1cc(C(=O)NS(=O)(=O)c2ccccc2C)ccc1Cc1cn(C)c2ccc(NC(=O)OC3CCCC3)cc12` [zafirlukast], for which the development of hyperpigmentation entry was “In no case did hyperpigmentation develop”.
